Reference: patent publication US20250388542A1, “ANALOGUES OF PENTAMIDINE AND USES THEREFOR” (Auransa Inc., priority 2018, published 2025)
“Also recorded” adds a separate entry of the source.

Test system: COLO 205-Luc colon cancer tumor cells
Assay: Colon orthotopic in vivo study
Conditions: for Body weight (mean ± SEM): in g (unit assumed)
[1] = 10 mg/kg, BID, day 0 after the start of treatment
[2] = 10 mg/kg, QD, day 0 after the start of treatment
[3] = 20 mg/kg, BID, day 0 after the start of treatment
[4] = 20 mg/kg, QD, day 0 after the start of treatment
[5] = 40 mg/kg, QD, day 0 after the start of treatment

Description: Approximately 2.0× Luciferase stably expressing colon cancer tumor cells (COLO 205-Luc) cells suspended in 30 μl of DPBS were injected into cecum wall of BALB/c nude mice.
The animals were assigned into groups using an Excel-based randomization software performing stratified randomization based upon their bioluminescence intensity. Treatment was initiated according to the predetermined regimen as shown in the experimental design table.
Mice were administered compound 1 at 10 mg/k daily, 20 mg/kg daily, 10 mg/kg twice daily, 20 mg/kg twice daily, or 40 mg/kg daily.
The major efficacy endpoint was bioluminescence (intensity values and change from baseline). The surgically inoculated mice were weighed and intraperitoneally administered luciferin at a dose of 150 mg/kg. Ten minutes after the luciferin injection, the animals were pre-anesthetized with the mixture gas of oxygen and isoflurane. When the animals were in a complete anesthetic state, the mice were moved into the imaging chamber for bioluminescence measurements with an IVIS (Lumina II) imaging system. The bioluminescence of the whole animal body, including primary and metastatic tumors, was measured and recorded once per week.
Tumor Growth Inhibition (TGI) was calculated for each group using the formula: TGI (%)=[1−(Ti−T0)/(Vi−V0)]×100; Ti is the average tumor bioluminescence value of a treatment group on a given day, T0 is the average tumor bioluminescence value of the treatment group on day 0, Vi is the average tumor bioluminescence value of the vehicle control group on the same day with Ti, and V0 is the average tumor bioluminescence value of the vehicle group on day 0.
For comparison among three or more groups, a one-way ANOVA was performed. When a non-significant F-statistics (a ratio of treatment variance to the error variance) was obtained, comparisons between groups were carried out with Dunnett t(2-sided). All data were analyzed using SPSS 17.0. p<0.05 is considered to be statistically significant.

## N=C(N)c1ccc(OCCCCCOc2ccc(C(=N)N)nc2)cc1 [Compound 1, 5-(5-(4-carbamimidoylphenoxy)pentyloxy)picolinimidamide]
[1]
  Relative bioluminescence (mean ± SEM): 100 ± 0%
  Body weight (mean ± SEM): 21.0 ± 0.4
10 mg/kg, BID, day 3
  Body weight (mean ± SEM): 21.2 ± 0.4
10 mg/kg, BID, day 7
  Relative bioluminescence (mean ± SEM): 447 ± 103%
  Body weight (mean ± SEM): 21.2 ± 0.4
10 mg/kg, BID, day 10
  Body weight (mean ± SEM): 21.2 ± 0.3
10 mg/kg, BID, day 14
  Relative bioluminescence (mean ± SEM): 1033 ± 385%
  Body weight (mean ± SEM): 21.8 ± 0.4
10 mg/kg, BID, day 17
  Body weight (mean ± SEM): 22.1 ± 0.4
10 mg/kg, BID, day 22
  Relative bioluminescence (mean ± SEM): 2993 ± 1325%
  Body weight (mean ± SEM): 21.2 ± 0.4
10 mg/kg, BID, day 24
  Body weight (mean ± SEM): 21.5 ± 0.3
10 mg/kg, BID, day 28
  Relative bioluminescence (mean ± SEM): 2715 ± 950%
  Body weight (mean ± SEM): 22.0 ± 0.3
[2]
  Relative bioluminescence (mean ± SEM): 100 ± 0%
  Body weight (mean ± SEM): 20.9 ± 0.5
10 mg/kg, QD, day 3
  Body weight (mean ± SEM): 21.4 ± 0.5
10 mg/kg, QD, day 7
  Relative bioluminescence (mean ± SEM): 351 ± 88%
  Body weight (mean ± SEM): 21.6 ± 0.5
10 mg/kg, QD, day 10
  Body weight (mean ± SEM): 21.5 ± 0.4
10 mg/kg, QD, day 14
  Relative bioluminescence (mean ± SEM): 1425 ± 930%
  Body weight (mean ± SEM): 21.7 ± 0.4
10 mg/kg, QD, day 17
  Body weight (mean ± SEM): 21.7 ± 0.4
10 mg/kg, QD, day 22
  Relative bioluminescence (mean ± SEM): 2819 ± 1388%
  Body weight (mean ± SEM): 21.7 ± 0.5
10 mg/kg, QD, day 24
  Body weight (mean ± SEM): 22.2 ± 0.6
10 mg/kg, QD, day 28
  Relative bioluminescence (mean ± SEM): 3171 ± 1602%
  Body weight (mean ± SEM): 22.6 ± 0.5
20 mg/kg or 40 mg/kg daily
  reducing tumor growth: non-statistically significant trend
[3]
  Relative bioluminescence (mean ± SEM): 100 ± 0%
  Body weight (mean ± SEM): 20.9 ± 0.5
20 mg/kg, BID, day 3
  Body weight (mean ± SEM): 20.9 ± 0.5
20 mg/kg, BID, day 7
  Relative bioluminescence (mean ± SEM): 299 ± 91%
  Body weight (mean ± SEM): 21.1 ± 0.5
20 mg/kg, BID, day 10
  Body weight (mean ± SEM): 21.1 ± 0.5
20 mg/kg, BID, day 14
  Relative bioluminescence (mean ± SEM): 1108 ± 433%
  Body weight (mean ± SEM): 21.5 ± 0.6
20 mg/kg, BID, day 17
  Body weight (mean ± SEM): 21.6 ± 0.6
20 mg/kg, BID, day 22
  Relative bioluminescence (mean ± SEM): 2340 ± 1230%
  Body weight (mean ± SEM): 20.9 ± 0.5
20 mg/kg, BID, day 24
  Body weight (mean ± SEM): 21.3 ± 0.5
20 mg/kg, BID, day 28
  Relative bioluminescence (mean ± SEM): 1877 ± 1076%
  Body weight (mean ± SEM): 21.7 ± 0.5
[4]
  Relative bioluminescence (mean ± SEM): 100 ± 0%
  Body weight (mean ± SEM): 20.8 ± 0.4
20 mg/kg, QD, day 3
  Body weight (mean ± SEM): 20.8 ± 0.3
20 mg/kg, QD, day 7
  Relative bioluminescence (mean ± SEM): 171 ± 46%
  Body weight (mean ± SEM): 20.8 ± 0.4
20 mg/kg, QD, day 10
  Body weight (mean ± SEM): 21.0 ± 0.3
20 mg/kg, QD, day 14
  Relative bioluminescence (mean ± SEM): 817 ± 269%
  Body weight (mean ± SEM): 21.2 ± 0.3
20 mg/kg, QD, day 17
  Body weight (mean ± SEM): 21.3 ± 0.4
20 mg/kg, QD, day 22
  Relative bioluminescence (mean ± SEM): 923 ± 354%
  Body weight (mean ± SEM): 21.1 ± 0.4
20 mg/kg, QD, day 24
  Body weight (mean ± SEM): 21.6 ± 0.3
20 mg/kg, QD, day 28
  Relative bioluminescence (mean ± SEM): 1613 ± 1022%
  Body weight (mean ± SEM): 21.5 ± 0.4
[5]
  Relative bioluminescence (mean ± SEM): 100 ± 0%
  Body weight (mean ± SEM): 20.7 ± 0.5
40 mg/kg, QD, day 3
  Body weight (mean ± SEM): 20.7 ± 0.5
40 mg/kg, QD, day 7
  Relative bioluminescence (mean ± SEM): 210 ± 57%
  Body weight (mean ± SEM): 20.2 ± 0.4
40 mg/kg, QD, day 10
  Body weight (mean ± SEM): 20.3 ± 0.5
40 mg/kg, QD, day 14
  Relative bioluminescence (mean ± SEM): 357 ± 109%
  Body weight (mean ± SEM): 20.5 ± 0.5
40 mg/kg, QD, day 17
  Body weight (mean ± SEM): 20.5 ± 0.5
40 mg/kg, QD, day 22
  Relative bioluminescence (mean ± SEM): 525 ± 145%
  Body weight (mean ± SEM): 20.4 ± 0.5
40 mg/kg, QD, day 24
  Body weight (mean ± SEM): 21.0 ± 0.5
40 mg/kg, QD, day 28
  Relative bioluminescence (mean ± SEM): 512 ± 206%
  Body weight (mean ± SEM): 21.3 ± 0.5
All dose groups 10-40 mg/kg QD, 10-20 mg/kg BID
  body weight loss as indirect measure of toxicity: No groups lost weight obviously
tumor-bearing BALB/c nude mice, all dose groups
  toxicity / tolerability: no obvious toxicity; also recorded: does not have significant toxicity and is well tolerated
